Test [1] concerns the target T1, Burkholderia xenovorans LB400 2-keto-3-deoxy-D-xylonate dehydratase (DR64_8450) (Paraburkholderia xenovorans, UniProt Q13FD1).
T1 construct: coupled with D-xylonate dehydratase and KGSADH
T1 sequence (Q13FD1 1-395): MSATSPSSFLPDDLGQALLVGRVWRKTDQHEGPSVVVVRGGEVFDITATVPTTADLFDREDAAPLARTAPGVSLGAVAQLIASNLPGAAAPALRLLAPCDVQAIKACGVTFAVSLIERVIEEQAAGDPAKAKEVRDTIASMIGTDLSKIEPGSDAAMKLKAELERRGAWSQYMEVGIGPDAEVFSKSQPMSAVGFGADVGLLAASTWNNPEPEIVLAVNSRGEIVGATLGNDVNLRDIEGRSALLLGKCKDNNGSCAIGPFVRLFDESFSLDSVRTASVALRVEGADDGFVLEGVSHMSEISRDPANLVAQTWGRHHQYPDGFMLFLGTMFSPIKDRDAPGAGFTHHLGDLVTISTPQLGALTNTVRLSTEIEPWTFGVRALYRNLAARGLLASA
Description: B. xenovorans 2-keto-3-deoxy-D-xylonate dehydratase, coupled assay with KGSADH. The class given is biochemical. As to the method: (§1) 2-Keto-3-deoxy-D-xylonate dehydratase (XylX/DR64-8450), 2-keto-3-deoxy-L-arabonate dehydratase (AraD) and 5-keto-4-deoxy-D-glucarate dehydratase (YcbC): Enzyme activities of XylX, DR64-8450, AraD and YcbC were assayed spectrophotometrically in a coupled assay with the corresponding previous dehydratase and 2-ketoglutaric semialdehyde dehydrogenase (KGSADH) as previously described (Watanabe et al., 2006. J Biol. Chem. 281:33521-33536). […] The reaction was initiated by adding an appropriate amount of 2-keto-3-deoxy-D-xylonate dehydratase (XylX/DR64-8450)/2-keto-3-deoxy-L-arabonate dehydratase (AraD)/5-keto-4-deoxy-D-glucarate dehydratase (YcbC), and the increasing absorbance at 340 nm caused by NADH produced in the reaction was monitored.

The target of test [2] is T2, Caulobacter crescentus 2-keto-3-deoxy-D-xylonate dehydratase (XylX) (Caulobacter vibrioides, UniProt A0A0H3C4T2).
T2 construct: coupled with XylD and KGSADH; BlpI site removed in gene
T2 sequence (A0A0H3C4T2 1-384): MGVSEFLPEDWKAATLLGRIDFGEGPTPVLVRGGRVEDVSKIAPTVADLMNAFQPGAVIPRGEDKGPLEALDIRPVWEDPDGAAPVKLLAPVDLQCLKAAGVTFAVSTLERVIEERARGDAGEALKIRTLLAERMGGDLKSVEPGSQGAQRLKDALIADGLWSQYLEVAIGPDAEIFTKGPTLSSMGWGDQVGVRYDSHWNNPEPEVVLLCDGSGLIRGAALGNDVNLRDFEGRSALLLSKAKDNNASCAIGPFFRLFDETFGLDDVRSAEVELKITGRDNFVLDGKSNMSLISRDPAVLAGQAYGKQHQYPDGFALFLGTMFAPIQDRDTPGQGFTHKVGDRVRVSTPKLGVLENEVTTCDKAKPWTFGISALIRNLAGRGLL
The test is described as follows: C. crescentus 2-keto-3-deoxy-D-xylonate dehydratase, coupled assay with KGSADH. The class given is biochemical. The settings on record: substrate from 0-20 mM D-xylonate, 1 mM NAD+, pH 7.5, 25° C. As to the method:
as §1

The target of test [3] is T3, Lactococcus lactis 2-ketoacid decarboxylase Kivd, wild type (Lactococcus lactis, UniProt Q684J7).
T3 construct: also expressed from pBDO-5 in E. coli fermentation (A5)
T3 sequence (Q684J7 1-548): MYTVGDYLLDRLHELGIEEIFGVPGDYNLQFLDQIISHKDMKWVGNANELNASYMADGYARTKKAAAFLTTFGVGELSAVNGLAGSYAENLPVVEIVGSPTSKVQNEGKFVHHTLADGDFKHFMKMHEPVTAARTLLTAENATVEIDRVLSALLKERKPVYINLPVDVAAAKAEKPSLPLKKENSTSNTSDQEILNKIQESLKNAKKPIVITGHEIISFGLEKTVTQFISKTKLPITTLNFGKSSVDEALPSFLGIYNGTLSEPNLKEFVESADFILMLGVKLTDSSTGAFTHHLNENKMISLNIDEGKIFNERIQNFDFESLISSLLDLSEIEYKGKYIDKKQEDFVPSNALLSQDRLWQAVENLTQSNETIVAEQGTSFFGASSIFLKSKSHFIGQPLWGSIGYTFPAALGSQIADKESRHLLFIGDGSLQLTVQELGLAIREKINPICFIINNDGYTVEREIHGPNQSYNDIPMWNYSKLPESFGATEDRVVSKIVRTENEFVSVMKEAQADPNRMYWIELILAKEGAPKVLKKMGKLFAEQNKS
Description: Kivd activity inferred from absence of BTO accumulation with L-arabinose as substrate. The class given is cell-based. The settings on record: indicated by no accumulation of BTO using L-arabinose. As for the experimental part: 125 ml conical flasks with 0.2 g CaCO3 were autoclaved and dried to perform all small-scale fermentations. […] 200 μl of overnight cultures incubated in 2×YT medium were transferred into the flasks and placed in a shaker at a speed of 250 rpm. After adding 0.1 mM isopropyl-β-D-thiogalactoside (IPTG), the flasks were sealed by parafilm and the fermentation was performed for 48 hours at 30° C. The fermentation products were measured by HPLC.

For test [4], the target named is T4, Bacillus subtilis 5-keto-4-deoxy-D-glucarate dehydratase (YcbC) (Bacillus subtilis, UniProt P42235).
T4 construct: His; made in house; host or cells: E. coli BL21
T4 sequence (P42235 whole entry): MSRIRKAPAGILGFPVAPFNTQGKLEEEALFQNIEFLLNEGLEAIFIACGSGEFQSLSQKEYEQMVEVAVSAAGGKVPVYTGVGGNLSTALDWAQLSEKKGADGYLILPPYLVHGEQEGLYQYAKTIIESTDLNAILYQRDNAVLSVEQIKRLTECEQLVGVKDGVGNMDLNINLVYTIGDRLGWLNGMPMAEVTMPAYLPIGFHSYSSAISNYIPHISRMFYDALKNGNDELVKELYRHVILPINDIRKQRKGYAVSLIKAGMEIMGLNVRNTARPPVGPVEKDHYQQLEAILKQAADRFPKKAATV
Description: 5-keto-4-deoxy-D-glucarate dehydratase, coupled assay with KGSADH. The class given is biochemical. The conditions noted are these: substrate from 0-20 mM D-galactarate, pH 7.5, 25° C. As to the method: as §1

The target of test [5] is T5, Burkholderia xenovorans LB400 D-xylose dehydrogenase (DR64_8447) (Paraburkholderia xenovorans, UniProt Q13FC8).
T5 construct: gene from LB400 genomic DNA
T5 sequence (Q13FC8 1-268): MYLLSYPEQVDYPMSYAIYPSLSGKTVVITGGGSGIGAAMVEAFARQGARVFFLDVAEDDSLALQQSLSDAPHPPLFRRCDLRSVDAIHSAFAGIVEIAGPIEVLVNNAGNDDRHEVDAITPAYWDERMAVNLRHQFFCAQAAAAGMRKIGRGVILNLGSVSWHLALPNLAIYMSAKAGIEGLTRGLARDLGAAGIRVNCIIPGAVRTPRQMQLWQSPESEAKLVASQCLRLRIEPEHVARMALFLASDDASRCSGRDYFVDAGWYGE
Description: B. xenovorans D-xylose dehydrogenase, NADH generation at 340 nm. The class given is biochemical. The settings on record: D-xylose 0 to 10 mM, 1 mM NAD+. As for the experimental part: (§2) A series of enzymatic assays were conducted to estimate the initial activity as a function of starting substrate concentration. […] Kinetic constants (kcat/Km) for following enzymes were calculated with the same method.

In test [6] the target is T6, Caulobacter crescentus D-xylose dehydrogenase (XylB) (Caulobacter vibrioides, UniProt B8H1Z0).
T6 construct: His; made in house; host or cells: E. coli BL21
T6 sequence (B8H1Z0 1-248): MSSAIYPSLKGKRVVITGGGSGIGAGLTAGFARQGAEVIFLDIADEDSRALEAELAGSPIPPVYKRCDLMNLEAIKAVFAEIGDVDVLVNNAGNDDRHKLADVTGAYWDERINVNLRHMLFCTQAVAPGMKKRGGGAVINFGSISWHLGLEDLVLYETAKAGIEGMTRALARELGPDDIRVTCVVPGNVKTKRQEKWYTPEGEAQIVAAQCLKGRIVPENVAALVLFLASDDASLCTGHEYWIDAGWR
Description: C. crescentus D-xylose dehydrogenase, NADH generation at 340 nm. The class given is biochemical. The conditions noted are these: D-xylose 0 to 10 mM, 1 mM NAD+. As to the method:
as §2

Setting [7] is: 100 mM Tris-HCl, 5 mM MgCl2, pH 7.5, 30° C.

Values joined by “and” are separate entries in the source; they are usually repeats but may differ in a detail not shown here. Equal values may be shown once.

`O=C(O)C(=O)C[C@H](O)CO` [2-keto-3-deoxy-D-xylonate]: the kcat (in general, the number of substrate molecules converted per active site and unit of time at saturation) in test [1] (coupled assay, substrate from 0-20 mM D-xylonate, 1 mM NAD+, pH 7.5, 25° C.) worked out at 4.7 s⁻¹; in test [2], 0.53 s⁻¹. In addition, the “kcat compared to XylX of C. crescentus” value in test [1] (higher kcat (4.7 s^−1) vs 0.53 s^−1) is 9 fold. In test [2], the kcat/Km (in general, the second-order rate constant that governs catalysis at low substrate concentration) was determined as 260 M⁻¹ s⁻¹.
Turning to `O=C(O)C(=O)C[C@@H](O)CO` [2-keto-3-deoxy-L-arabonate], the “Kivd activity on 2-keto-3-deoxy-L-arabonate” value in test [3] is “not active”.
`O=C(O)C(=O)C[C@H](O)[C@@H](O)C(=O)O` [5-keto-4-deoxy-D-glucarate]: the “specific constant (kcat/Km), compared within D-galacturonate pathway” value in test [4] is “lowest specific constant”.
On to `OC1OC[C@@H](O)[C@H](O)[C@H]1O` (stereo partly drawn) [D-xylose], for which the Michaelis-Menten constant (Km) (as a rule, the substrate concentration at which the rate is half of its maximum) in test [5] (setting [7]) amounted to 1970 ± 120 µM; in test [6] (setting [7]), 850 ± 80 µM. The kcat in test [5] (pH 7.5, 30° C.) was 49.9 ± 4.2 s⁻¹; in test [6] (pH 7.5, 30° C.) it was 12.1 s⁻¹ and 12.1 ± 2.2 s⁻¹.

The values are drawn from patent US20170137855A1, “RECOMBINANT CELLS AND METHODS FOR NONPHOSPHORYLATIVE METABOLISM” (REGENTS OF THE UNIVERSITY OF MINNESOTA, priority 2015, published 2017).
